Experimental data taken from patent US20130295672A1, “STEM CELL CULTURE MEDIA AND METHODS” (CONSEJO SUPERIOR DE INVESTIGACIONES CIENTÍFICAS, priority 2010, published 2013).

What was measured:
Assay type in all cases: cell-based, human
[1] = MTS assay (CellTiter AQueous One Solution Cell Proliferation Assay), hASC viability/growth; settings: human, hASC cells; no APRIL/BAFF; control 100%; read-out: basal hASC growth in MTS assay with inhibitor added to medium
Protocol: (§1) FIG. 2. APRIL and BAFF enhance hASC viability and proliferation. (A): Cell viability was assessed by the CellTiter AQueous One Solution Cell Proliferation Assay (Promega, Madison, Wis.) according to manufacturer's protocols. hASC (3.5×10^3 cells/well) were cultured for 6 days in 96-well plates with 100 ng/ml APRIL or BAFF. Absorbance (OD 490 nm) was measured in an ELISA plate reader (n=at least three experiments). Values were normalized to the absorbance of cells cultured without stimuli (100%). (B): Histograms show cell proliferation measured by a […] BrdU incorporation assay. hASC were cultured in p60 plates with 100 ng/ml APRIL or BAFF; BrdU (20 μM) was added for the last three days. At day 6, BrdU incorporation was detected by flow cytometry using an anti-BrdU antibody. Numerals indicate percentage of cells positive for BrdU and, therefore, actively proliferating. Cell viability was assessed by the CellTiter AQueous One Solution Cell Proliferation Assay (Promega, Madison, Wis.) according to manufacturer's protocols. hASC (3.5×10^3 cells/well) were cultured for 6 days in 96-well plates with 100 ng/ml APRIL or BAFF. Absorbance (OD 490 nm) was measured in an ELISA plate reader (n=at least three experiments). Values were normalized to the absorbance of cells cultured without stimuli (100%). Additionally, cell proliferation was measured by a colorimetric BrdU incorporation assay. hASC were cultured in p60 plates with 100 ng/ml APRIL or BAFF; BrdU (20 μM) was added for the last three days. At day 6, BrdU incorporation was detected by flow cytometry using an anti-BrdU antibody. Three independent MTS and BrdU assays were performed and triplicates included for each condition.

hASC [2] = experiment: as above; settings: for hASC growth in MTS assay, considering basal growth 100%: 100 ng/ml, 6 days in culture, normalized to cells without stimuli (100%); for promotion of cell growth when ERK was inhibited: with ERK inhibitor U0126, effect kept when PI3K was inhibited
Protocol: as §1

[3] = system: indoleamine 2,3-dioxygenase (IDO); experiment: IDO induction in hASC; settings: BAFF/APRIL activation of hASC
JNK, IκBα or p38 = experiment: Western blot phosphorylation kinetics in stimulated hASC: JNK, IκBα, p38
PBMC proliferation = experiment: Immunosuppression assay: proliferation of activated CFSE-labeled PBMC with allogeneic hASC; settings: 100 ng/ml, day 5
Protocol: FIG. 4. Modulation of APRIL and BAFF in hASC. Immunosuppressive effect (A): hASC cells were cultured with 100 ng/ml APRIL (light grey bar), BAFF (dark grey bar) or no stimulus (white bar) and then stimulated with 1 μg/ml LPS or poly I:C. […] Data were acquired using a FACScalibur cytometer and analyzed using FCAP array software (BD Bioscience). (B): Immunosupression assay: Allogeneic hASCs were cultured with activated CFSE labelled PBLs at a ratio of 1:25 (hASC: PBLs) in the presence or absence of BAFF or APRIL (100 ng/ml). After 5 days cells were harvested, analyzed by flow cytometry in a FACScalibur cytometer (BD Bioscience) and acquired for CFSE. […]
For CFSE labeling, freshly purified PBMC (10-20×106) were washed extensively to remove FBS, resuspended in 200 μl of a 10 μM CFSE solution (Sigma), and incubated with constant shaking (37° C., 10 min) Cells were washed and cultured overnight, and one aliquot was used to set up and control FL-1 voltage for CFSE in the cytometer. […] At day 5, PBMC were harvested and cell proliferation was determined according to loss of CFSE in the FL-1 channel. Data were analyzed using Cellquest-Pro software on gated lymphocytes (based on forward scatter/side scatter properties). The percentage of proliferating lymphocytes was calculated by gating in the region (M1) of the FL-1 channel corresponding to the last 48 h of culture ([…]). […]

Akt = experiment: Western blot phosphorylation kinetics in stimulated hASC: Akt; settings: 100 ng/ml, 10-120 min
Protocol: (§2) FIG. 3. APRIL and BAFF-mediated signaling in hASC. hASC were stimulated with 100 ng/ml APRIL or BAFF (10, 30, 60, 120 min, 37° C.), placed on ice, washed with ice-cold PBS, and lysed with cell lysis buffer (Roche, Indianapolis, Ind.). Extracts were quantified by absorbance, resolved in SDS-PAGE and analyzed by immunoblot. Antibodies used were anti-phospho-Akt (Ser473), -Akt, -phospho-ERK1/2 (Thr202/Tyr204), and -ERK1/2) (BD Bioscience); secondary antibodies were horseradish peroxidase-conjugated bovine anti-rabbit and goat anti-mouse IgG. (B): Histograms show cell proliferation measured by BrdU incorporation as in (FIG. 2B), with addition of the ERK inhibitor U0126 (2.5 μM; Sigma) or the PI3K inhibitor LY294002 (10 μM; Calbiochem) to the culture on days 0 and 3. […]
(§3) hASC were stimulated with 100 ng/ml APRIL or BAFF (10, 30, 60, 120 min, 37° C.), placed on ice, washed with ice-cold PBS, and lysed with cell lysis buffer (Roche, Indianapolis, Ind.). Extracts were quantified by absorbance, resolved in SDS-PAGE and analyzed by immunoblot. […]
(§4) Plated hASC (1.5×10^4 cells/cm2) were stimulated with APRIL or BAFF (100 ng/ml) and lysed with lysis buffer (Roche) with protease and phosphatase inhibitors. Proteins in extracts were quantified by absorbance with the BCA protein assay kit (Pierce), and equal amounts of protein homogenate resolved in SDS-PAGE, and transferred to PVDF membranes (Millipore). […]

ERK1/2 = experiment: Western blot phosphorylation kinetics in stimulated hASC: ERK1/2; settings: 100 ng/ml, 10-120 min
Protocol: as §2, §3, §4

[4] = system: HLA-I, HLA-II, CD80 and CD86 expression; experiment: Flow cytometry of hASC activation molecules; settings: APRIL or BAFF activation
Protocol: hASCs were harvested, stained with appropriate fluorochrome-coupled antibodies and measured by flow cytometry (BD FACS Calibur). Data were analyzed using the FlowJo program (TreeStar, Ashland, Oreg.).

hASC [5] = experiment: BrdU incorporation assay by flow cytometry, hASC proliferation; settings: 100 ng/ml, day 6, BrdU for the last three days; control 13%
Protocol: as §1, with “Additionally, cell proliferation was measured by a colorimetric BrdU incorporation assay. hASC were cultured in p60 plates with 100 ng/ml APRIL or BAFF; BrdU (20 μM) was added for the last three days.” left out, “Three independent MTS and BrdU assays were performed and triplicates included for each condition.” left out

[6] = system: APRIL and BAFF secretion in hASC; experiment: ELISA of APRIL and BAFF concentrations in hASC medium
Protocol: FIG. 4. Modulation of APRIL and BAFF in hASC. Immunosuppressive effect (A): hASC cells were cultured with 100 ng/ml APRIL (light grey bar), BAFF (dark grey bar) or no stimulus (white bar) and then stimulated with 1 μg/ml LPS or poly I:C. […] Data were acquired using a FACScalibur cytometer and analyzed using FCAP array software (BD Bioscience). (B): Immunosupression assay: Allogeneic hASCs were cultured with activated CFSE labelled PBLs at a ratio of 1:25 (hASC: PBLs) in the presence or absence of BAFF or APRIL (100 ng/ml). After 5 days cells were harvested, analyzed by flow cytometry in a FACScalibur cytometer (BD Bioscience) and acquired for CFSE. Percentage of proliferating cells (relative to PBLs alone) in the last two generations is shown. Mean and standard deviation of experiments with 6 different buffy coats are represented. Buffy coats were provided by the National Transfusion Centre of the Comunidad Autónoma of Madrid. PBLs were isolated by density centrifugation gradient using Ficollplaque Plus (GE Healthcare Biosciences AB, Uppsala) (C): hASC cells were cultured with IFNγ. Supernatants were collected five days later. […] IL-6 and IL-8 concentration in the medium after 48 h, was measured by the Cytometric Bead Array (CBA) immunoassay (BD Bioscience) following manufacturer instructions. Data were acquired using a FACScalibur cytometer and analyzed using FCAP array software (BD Bioscience). […] Supernatants were collected five days later. APRIL and BAFF concentrations in the medium were determined by ELISA (R&D Systems for BAFF, Bender MedSystem for APRIL).

[7] = 10, 30, 100 ng/ml, supernatants after five days

**Q.** With `O=c1cc(N2CCOCC2)oc2c(-c3ccccc3)cccc12` [LY294002, reference compound] as the molecule, how does the viability at 6 days [1] read?
**A.** 60.3%

**Q.** Which “decrease in basal hASC growth (MTS assay), result in words” value (hASC [2]; inhibitor added to medium, no APRIL/BAFF) does the source give for `N#CC(=C(/N)Sc1ccccc1N)/C(C#N)=C(\N)Sc1ccccc1N` [U0126, reference compound] here?
**A.** but not ERK inhibitor

**Q.** What does the source list for “APRIL: recombinant protein from R&D Systems; TNF ligand binding BCMA and TACI”?
**A.** induction of IDO [3]: did not induce; phosphorylation of JNK, IκBα or p38 (JNK, IκBα or p38): no clear effect; hASC growth in MTS assay, considering basal growth 100% (hASC [2]): 114%; promotion of cell growth when ERK was inhibited (hASC [2]): did not promote cell growth; effect on ability of hASC to suppress PBMC proliferation (PBMC proliferation): did not alter; phosphorylation of Akt (Akt): induced rapid phosphorylation; phosphorylation of ERK1/2 (ERK1/2): induced rapid phosphorylation; effect on hASC expression of HLA-I, HLA-II, CD80 and CD86 [4]: do not affect; percentage of BrdU-positive cells (hASC [5]): 27.5%

**Q.** For “BAFF: recombinant protein from R&D Systems; TNF ligand binding BCMA, TACI and BAFF-R”, which “induction of IDO” value [3] is on record?
**A.** did not induce

**Q.** What about the “phosphorylation of JNK, IκBα or p38” value (JNK, IκBα or p38) of the same molecule?
**A.** no clear effect

**Q.** And the “hASC growth in MTS assay, considering basal growth 100%” value (hASC [2])?
**A.** 140%

**Q.** What about the “promotion of cell growth when ERK was inhibited” value (hASC [2]) of the same molecule?
**A.** did not promote cell growth

**Q.** And the “effect on ability of hASC to suppress PBMC proliferation” value (PBMC proliferation)?
**A.** did not alter

**Q.** What about the “phosphorylation of Akt” value (Akt) of the same molecule?
**A.** induced rapid phosphorylation

**Q.** What about the “phosphorylation of ERK1/2” value (ERK1/2) of the same molecule?
**A.** induced rapid phosphorylation

**Q.** And the “effect on hASC expression of HLA-I, HLA-II, CD80 and CD86” value [4]?
**A.** do not affect

**Q.** What about the “percentage of BrdU-positive cells” value (hASC [5]) of the same molecule?
**A.** 29.4%

**Q.** For “CXCL12: cytokine from Peprotech; enhances APRIL secretion”, which “APRIL secretion by hASC” value [6, 7] is on record?
**A.** preferentially enhances APRIL

**Q.** For poly I:C [reference compound], which “induction of APRIL or BAFF secretion by TLR ligand” value ([6]; hASC activated with LPS or poly I:C) is on record?
**A.** Neither ligand induced

B1: IFN-γ: cytokine from Peprotech; inducer of BAFF (protein, UniProt P01579 24-161, looked up)
Interferon gamma: QDPYVKEAENLKKYFNAGHSDVADNGTLFLGILKNWKEESDRKIMQSQIVSFYFKLFKNFKDDQSIQKSVETIKEDMNVKFFNSNKKKRDDFEKLTNYSVTDLNVQRKAIHELIQVMAELSPAAKTGKRKRSQMLFRG
**Q.** Which “BAFF secretion by hASC” value [6, 7] does the source give for B1 here?
**A.** promotes BAFF secretion
